What follows are compounds tested against T1, Human MAT2A (Homo sapiens, UniProt P31153) (assay: Phosphate Sensor Fluorescence Assay (Biologic Example A)). Details: MAT2A inhibition, Biological Example A procedure (Compounds 1.001-1.028); 500 uM L-methionine, 500 uM ATP.
T1 construct: Human MAT2A: Cepter, amino acids 1-395 Clone ID 334, lot 00023-148; purchased Cepter clone ID 334, lot 00023-148
T1 sequence (P31153 whole entry, the tested form may be a part): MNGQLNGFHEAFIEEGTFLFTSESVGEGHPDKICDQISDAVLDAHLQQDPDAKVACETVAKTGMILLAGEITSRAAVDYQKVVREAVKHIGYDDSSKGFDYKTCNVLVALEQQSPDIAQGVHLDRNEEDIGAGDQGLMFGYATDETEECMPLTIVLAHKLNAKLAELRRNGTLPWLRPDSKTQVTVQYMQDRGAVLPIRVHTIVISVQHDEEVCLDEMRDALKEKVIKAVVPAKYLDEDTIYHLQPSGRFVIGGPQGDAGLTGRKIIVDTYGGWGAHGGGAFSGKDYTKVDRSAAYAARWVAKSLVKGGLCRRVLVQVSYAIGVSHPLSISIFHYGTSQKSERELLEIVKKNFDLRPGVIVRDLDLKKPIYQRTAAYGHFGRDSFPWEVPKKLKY
Format: biochemical
Procedure: (§1) The ability of the compound of present disclosure to inhibit MAT2A enzyme was determined using a Phosphate Sensor Fluorescence Assay described below.
Biologic Example A. Phosphate Sensor Fluorescence Assay
(§2) MAT2A enzyme is incubated with a test compound in DMSO or DMSO and its substrates (L-methionine and ATP) in a microtiter plate. The enzymatic reaction is stopped by the addition of Working Phosphate Sensor Mixture. The plate is analyzed for fluorescence at 450 nm. The high control (DMSO with enzyme and its substrates) gives high fluorescence which represents no inhibition of enzymatic activity while the low control (DMSO with MAT2A substrates and no enzyme) gives low fluorescence which represents full inhibition of enzymatic activity.
(§3) • Human MAT2A: Cepter, amino acids 1-395 • Tris, pH 7.5: Invitrogen cat #15567-027 • KCl: Ambion cat #AM9640G • MgCl2: Ambion cat #AM9530G • Brij-35: Sigma cat B4184-10ML • DTT: Goldbio cat #DTT100 • BGG: Sigma cat #G5009-25G • PNP: Novus Biologicals cat #NBP1-50872 • 7-MEG: Cayman Chemical cat #15988 • L-Methionine: Alfa Aesar cat #J61904 • ATP: Alfa Aesar cat #J60336 • Phosphate Sensor: Thermo Fisher cat #PV4407 • EDTA: Life Tech cat #15575-038 • Assay plate: 384-well black polypropylene plate: Thomas Scientific cat #1149Q35
• Assay Buffer: 50 mM Tris, pH 7.5/50 mM KCl/10 mM MgCl2/0.01% Brij-35/1 mM DTT/0.1% BGG/40 nM PNP/6 uM 7-MEG • MAT2A: 10 nM for Cepter clone ID 329, lot 00023-123 before the addition of Working Phosphate Sensor Mixture • 5 nM for Cepter clone ID 334, lot 00023-148 before the addition of Working Phosphate Sensor Mixture • L-methionine: 500 uM before the addition of Working Phosphate Sensor Mixture • ATP: 500 uM before the addition of Working Phosphate Sensor Mixture
(§4) For the assay, a mixture of 1 mM L-methionine/1 mM ATP (2× final pre-stopped concentration) in assay buffer; MAT2A (2× final pre-stopped concentration) in Assay Buffer and Working Phosphate Sensor Mixture (1.5 uM Phosphate Sensor/30 mM EDTA in Assay Buffer, which is 3× final concentrations) were prepared. Test compounds or DMSO were added to the appropriate well suing D300e digital dispenser. 5 μl/well of Assay Buffer was added to the wells corresponding to the negative control and 5 μl/well of MAT2A was added to all the wells except for those corresponding to the negative control. After incubating the plate at room temperature for 15 minutes, 5 μl/well of the 1 mM L-methionine/1 mM ATP mixture was added to all wells. The plate was centrifuged at 1000 rpm for 1 minute and then incubated at room temperature for 1 hour. 5 μl of the Working Phosphate Sensor Mixture was added to all wells and the plate was centrifuged at 1000 rpm for 1 minute. The plate was read for fluorescence at 450 nm after exciting at 430 nm.
(§5) Percent inhibition was calculated in Chemical and Biological Information System (CBIS), (ChemInnovation Software Inc.). Curves were fitted by CBIS as % inhibition vs. log [compound concentration] using a 4-parameter inhibition model.
(§6) Fit=(A+((B−A)/(1+((C/x)^D))))
(§7) Compounds 1.001-1.028 were tested using the procedure described in Bioogical Example A, described above. Compounds 1.029-1.070 were tested using the procedure described in Biological Example B, described above.
`CNc1nc(=O)n([C@H](C)c2cscn2)c2cc(C(F)(F)F)ccc12` [1.002, (R)-4-(methylamino)-1-(1-(thiazol-4-yl)ethyl)-7-(trifluoromethyl)quinazolin-2(1H)-one] showed an IC50 of 500 to 1000 nM. For `CC(c1c[nH]cn1)n1c(=O)nc(N2CC[C@@H](O)C2)c2ccc(C(F)(F)F)cc21` (mixture of isomers) [1.012, 1-(1-(1H-imidazol-4-yl)ethyl)-4-((R)-3-hydroxypyrrolidin-1-yl)-7-(trifluoromethyl)quinazolin-2(1H)-one], the IC50 was 10 to 200 nM. Work on `CNc1nc(=O)n(Cc2c[nH]nn2)c2cc(C(F)(F)F)ccc12` [1.005, 1-((1H-1,2,3-triazol-4-yl)methyl)-4-(methylamino)-7-(trifluoromethyl)quinazolin-2(1H)-one] yielded an IC50 of 1000 to 10000 nM. Compound `CNc1nc(=O)n(Cc2c[nH]c(C(F)(F)F)n2)c2cc(C(F)(F)F)ccc12` [1.010, 4-(methylamino)-7-(trifluoromethyl)-1-((2-(trifluoromethyl)-1H-imidazol-4-yl)methyl)quinazolin-2(1H)-one] has an IC50 of 1000 to 10000 nM. With `CNc1nc(=O)n(Cc2c[nH]nn2)c2cc(C3CC3)ccc12` [1.006, 1-((1H-1,2,3-triazol-4-yl)methyl)-7-cyclopropyl-4-(methylamino)quinazolin-2(1H)-one] the IC50 was 1000 to 10000 nM. Work on `CC(c1c[nH]cn1)n1c(=O)nc(N2CC[C@@H](CO)C2)c2ccc(C(F)(F)F)cc21` (mixture of isomers) [1.020, 1-(1-(1H-imidazol-4-yl)ethyl)-4-((R)-3-(hydroxymethyl)pyrrolidin-1-yl)-7-(trifluoromethyl)quinazolin-2(1H)-one] yielded an IC50 of 200 to 500 nM. Compound `CNc1nc(=O)n(Cc2c[nH]cn2)c2cc(C3CC3)ccc12` [1.004, 1-((1H-Imidazol-4-yl)methyl)-7-cyclopropyl-4-(methylamino)quinazolin-2(1H)-one] has an IC50 of 10 to 200 nM. In the case of `CC(c1c[nH]cn1)n1c(=O)nc(N2CC[C@H](CO)C2)c2ccc(C(F)(F)F)cc21` (stereo partly drawn) [1.011, 1-(1-(1H-imidazol-4-yl)ethyl)-4-((S)-3-(hydroxymethyl)pyrrolidin-1-yl)-7-(trifluoromethyl)quinazolin-2(1H)-one], the IC50 is reported as 10 to 200 nM. `C[C@@H](c1c[nH]cn1)n1c(=O)nc(N2CC[C@@H](O)C2)c2ccc(C(F)(F)F)cc21` (single isomer, unassigned) [1.014] was tested, and the IC50 was 10 to 200 nM. Compound `C[C@@H](c1c[nH]cn1)n1c(=O)nc(N2CCCC2)c2ccc(C(F)(F)F)cc21` (single isomer, unassigned) [1.024] has an IC50 of 10 to 200 nM. Compound `C[C@@H](c1c[nH]cn1)n1c(=O)nc(N2CCC2)c2ccc(C(F)(F)F)cc21` (single isomer, unassigned) [1.028] has an IC50 of 10 to 200 nM. `CNc1nc(=O)n([C@H](C)c2c[nH]cn2)c2cc(C(F)(F)F)ccc12` (single isomer, unassigned) [1.008] gave an IC50 of 10 to 200 nM. `CO[C@@H]1CCN(c2nc(=O)n([C@H](C)c3c[nH]cn3)c3cc(C(F)(F)F)ccc23)C1` (single isomer, unassigned) [1.025] gave an IC50 of 10 to 200 nM. `CC(c1c[nH]cn1)n1c(=O)nc(N(C)C)c2ccc(C(F)(F)F)cc21` (stereo not drawn) [1.015, 1-(1-(1H-imidazol-4-yl)ethyl)-4-(dimethylamino)-7-(trifluoromethyl)quinazolin-2(1H)-one] showed an IC50 of 10 to 200 nM. `C[C@@H](c1c[nH]cn1)n1c(=O)nc(N(C)C)c2ccc(C(F)(F)F)cc21` (single isomer, unassigned) [1.017] gave an IC50 of 10 to 200 nM. `CO[C@H]1CCN(c2nc(=O)n([C@@H](C)c3c[nH]cn3)c3cc(C(F)(F)F)ccc23)C1` (single isomer, unassigned) [1.022] showed an IC50 of 1000 to 10000 nM. With `CC(c1c[nH]cn1)n1c(=O)nc(N)c2ccc(C(F)(F)F)cc21` (stereo not drawn) [1.018, 1-(1-(1H-imidazol-4-yl)ethyl)-4-amino-7-(trifluoromethyl)quinazolin-2(1H)-one] the IC50 was 10 to 200 nM. `CNc1nc(=O)n([C@@H](C)c2c[nH]cn2)c2cc(C(F)(F)F)ccc12` (single isomer, unassigned) [1.009] showed an IC50 of 10 to 200 nM. Compound `CC(c1c[nH]cn1)n1c(=O)nc(N2CC[C@H](O)C2)c2ccc(C(F)(F)F)cc21` (mixture of isomers) [1.019, 1-(1-(1H-imidazol-4-yl)ethyl)-4-((S)-3-hydroxypyrrolidin-1-yl)-7-(trifluoromethyl)quinazolin-2(1H)-one] has an IC50 of 200 to 500 nM. With `C[C@H](c1c[nH]cn1)n1c(=O)nc(N2CC[C@@H](O)C2)c2ccc(C(F)(F)F)cc21` (single isomer, unassigned) [1.013] the IC50 was 10 to 200 nM. Work on `CNc1nc(=O)n(Cc2c[nH]cn2)c2cc(Cl)ccc12` [1.001, 1-((1H-imidazol-4-yl)methyl)-7-chloro-4-(methylamino)quinazolin-2(1H)-one] yielded an IC50 of 10 to 200 nM. In the case of `C[C@H](c1c[nH]cn1)n1c(=O)nc(N(C)C)c2ccc(C(F)(F)F)cc21` (single isomer, unassigned) [1.016], the IC50 is reported as 10 to 200 nM.

What follows are compounds tested against T1, Human MAT2A (assay: Phosphate Sensor Fluorescence Assay (Biologic Example B)). Details: MAT2A inhibition, Biological Example B procedure (Compounds 1.029-1.070); 5.8 nM MAT2A, 500 uM L-methionine, 500 uM ATP.
Format: biochemical
Procedure: as §1
Biologic Example B. Phosphate Sensor Fluorescence Assay
as §2
as §3, with “1-395 Clone ID 334, lot 00023-148” for “1-395”, “JTBaker P/N 2085-05” for “Alfa Aesar cat #J61904”, “Promega P/N V915B” for “Alfa Aesar cat #J60336”, “Invitrogen” for “Thermo Fisher”, “Corning P/N 3573” for “Thomas Scientific cat #1149Q35”
• Assay Buffer: 50 mM Tris, pH 7.5/50 mM KCl/10 mM MgCl2/0.01% Brij-35/1 mM DTT/0.01% BGG/40 nM PNP/6 uM 7-MEG • MAT2A: 5.8 nM MAT2A (1-395), Cepter, clone ID 334, lot 00023-148 before the addition of Working Phosphate Sensor Mixture • L-methionine: 500 uM before the addition of Working Phosphate Sensor Mixture • ATP: 500 uM before the addition of Working Phosphate Sensor Mixture
as §4, with “using a Beckman Coulter Echo 550 acoustic liquid handler. 10 μL/well” for “suing D300e digital dispenser. 5 μl/well”, “10 μL/well” for “5 μl/well”, “10 μL” for “5 μl”, “nm on a Tecan Spark microplate reader.” for “nm.”
as §5, §6, §7
For `CC(C)N(C)c1nc(=O)n([C@H](C)c2cnc[nH]2)c2cc(C(F)(F)F)ccc12` (single isomer, unassigned) [1.038], the IC50 was 10 to 200 nM. `C[C@@H](c1cnc[nH]1)n1c(=O)nc(N(C)C)c2ccc(Br)cc21` (single isomer, unassigned) [1.044] was tested, and the IC50 was < 10 nM. Compound `CN(C)c1nc(=O)n(Cc2cncn2C)c2cc(C(F)(F)F)ccc12` [1.055, 4-(dimethylamino)-1-((1-methyl-1H-imidazol-5-yl)methyl)-7-(trifluoromethyl)quinazolin-2(1H)-one] has an IC50 of 200 to 500 nM. With `CN(C)c1nc(=O)n(Cc2cnc[nH]2)c2cc(Cl)ccc12` [1.034, 1-((1H-imidazol-5-yl)methyl)-7-chloro-4-(dimethylamino)quinazolin-2(1H)-one] the IC50 was 200 to 500 nM.

Same assay, conditions: MAT2A inhibition, Biological Example B procedure; printed as a numeric bound, not a class symbol
`Cc1ncc(Cn2c(=O)nc(N(C)C)c3ccc(C(F)(F)F)cc32)[nH]1` [1.049, 4-(Dimethylamino)-1-((2-methyl-1H-imidazol-5-yl)methyl)-7-(trifluoromethyl)quinazolin-2(1H)-one] was tested, and the IC50 was > 10000 nM.

From patent US20240208965A1, “HETEROARYL ALKYLENE SUBSTITUTED 2-OXOQUINAZOLINE DERIVATIVES AS METHIONINE ADENOSYLTRANSFERASE 2A INHIBITORS” (IDEAYA BIOSCIENCES, INC., priority 2020, published 2024)
